From US6552045B2 (Sepracor Inc., priority 1999, dated 2003)

What was measured:
[1] = co-administration with ketoconazole; inhibition of the metabolic elimination of cisapride; cited from earlier work
[2] = biological target: T1, 5-HT3 receptor subtypes derived from N1E-115 cells (Mus musculus, UniProt P23979); experiment: Receptor binding, 5-HT3 receptor (radioligand binding, Cerep); details: ratio of IC50 at 5-HT3 to IC50 at 5-HT4
T1 construct: 5-HT3 receptor subtypes derived from N1E-115 cells; host or cells: N1E-115 cells
T1 sequence (P23979 24-489): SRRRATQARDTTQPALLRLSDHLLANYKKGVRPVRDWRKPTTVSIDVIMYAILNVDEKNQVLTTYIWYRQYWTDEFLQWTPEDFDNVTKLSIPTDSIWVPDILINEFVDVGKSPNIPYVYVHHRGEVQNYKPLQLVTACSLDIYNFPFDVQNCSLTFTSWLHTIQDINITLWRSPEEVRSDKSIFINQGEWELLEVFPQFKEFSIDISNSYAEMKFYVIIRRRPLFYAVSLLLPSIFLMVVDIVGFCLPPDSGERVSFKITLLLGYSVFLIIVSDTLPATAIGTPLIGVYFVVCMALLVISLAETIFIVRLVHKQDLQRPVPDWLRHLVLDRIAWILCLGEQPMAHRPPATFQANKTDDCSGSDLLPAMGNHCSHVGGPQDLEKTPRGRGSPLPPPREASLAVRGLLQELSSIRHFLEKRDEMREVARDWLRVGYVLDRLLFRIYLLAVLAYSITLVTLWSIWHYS
Experimental: Receptor Binding 5-HT3 Receptor
Following incubation with the appropriate ligands, the preparations were rapidly filtered under vacuum through GF/B glass fiber filters and washed with ice-old buffer using a Brandel or Packard cell harvester.
Specific radioligand binding to the receptor was defined as the difference between total binding and nonspecific binding determined in the presence of an excess of unlabeled ligand. Results were expressed as a percent inhibition of specific binding obtained in the presence of the compounds.

5-HT3/5-HT4 Ratio [2]	SMILES	increase of the steady-state plasma levels [1]
	COc1cc(N)c(Cl)cc1C(=O)N[C@H]1CCN(CCCOc2ccc(F)cc2)C[C@H]1OC (racemic) [(±) Cisapride, cis-4-amino-5-chloro-N-[1-[3-(4-fluorophenoxy)propyl]-3-methoxy-4-piperidinyl]-2-methoxybenzamide]	8 fold
0.014	COc1cc(N)c(Cl)cc1C(=O)NC1CCNCC1OC (single isomer, unassigned; (+)) [(+) Norcisapride]	
0.012	COc1cc(N)c(Cl)cc1C(=O)NC1CCNCC1OC (racemic) [(±) Norcisapride, 4-amino-5-chloro-N-(3-methoxy-4-piperidinyl)-2-methoxybenzamide]	
0.023	COc1cc(N)c(Cl)cc1C(=O)NC1CCNCC1OC (single isomer, unassigned; (-)) [(−) Norcisapride]	
